The source made the active and inactive calls. The rule behind the calls is not given here.
Columns and labels:
3T3-L1 [1] = assay: Anti-adipogenic activity in SiRNA mediated Raptor knockdown mouse 3T3-L1 cells assessed as C/EBPalpha expression level at 10 uM by Western blot analysis; assay type: functional, cell-based
3T3-L1 [2] = assay: Anti-adipogenic activity against mouse 3T3-L1 cells assessed as downregulation of FAS mRNA expression level at 0.1 to 1 uM incubated for 6 days by RT-qPCR analysis; assay type: functional, cell-based; details: dose 0.1-1 µM, time 6.0 day
mTORC1 (Mus musculus) [3] = target: mTORC1 (Mus musculus) (UniProt Q9JLN9); assay: Inhibition of mTORC1 formation in siRNA mediated Raptor knockdown mouse 3T3-L1 cells assessed as decrease in S6K1 expression level at 10 uM incubated for 24 hrs by Western blot analysis; assay type: cell-based
Mus musculus [4] = assay: Anti-obesity activity in high fat diet-induced obese C57BL/6J mouse model assessed as increase in PGC-1alpha expression level in brown adipocyte at 40 mg/kg, ip administered every two days for 46 days by immunohistochemical analysis; assay type: functional, organism-based; details: time 46.0 day
Mus musculus [5] = assay: Anti-obesity activity in high fat diet-induced obese C57BL/6J mouse model assessed as reduction in free fatty acid level at 40 mg/kg, ip administered every two days for 46 days; assay type: functional, organism-based; details: time 46.0 day
Mus musculus [6] = assay: Anti-obesity activity in high fat diet-induced obese C57BL/6J mouse model assessed as reduction in hepatic steatosis by measuring lipid deposition at 40 mg/kg, ip administered every two days for 46 days; assay type: functional, organism-based; details: time 46.0 day
3T3-L1 [7] = assay: Anti-adipogenic activity in SiRNA mediated Raptor knockdown mouse 3T3-L1 cells assessed as FAS expression level at 10 uM by Western blot analysis; assay type: functional, cell-based
[8] = target: Serine/threonine-protein kinase mTOR (Mus musculus) (UniProt Q9JLN9); assay: Inhibition of mTOR signalling in mouse 3T3-L1 cells assessed as upregulation of LC3II expression level at 0.1 to 10 uM incubated for 24 hrs by Western blot analysis; assay type: cell-based; details: dose 0.1-10 µM
Mus musculus [9] = assay: Anti-obesity activity in high fat diet-induced obese C57BL/6J mouse assessed as reduction in visceral fat content by measuring epididymis white adipose tissue weight at 40 mg/kg, ip administered every two days for 46 days; assay type: functional, organism-based; details: time 46.0 day
mTORC1 (Mus musculus) [10] = target: mTORC1 (Mus musculus) (UniProt Q9JLN9); assay: Inhibition of mTORC1 formation in mouse 3T3-L1 cells assessed as decrease in S6K1 expression level at 10 uM incubated for 24 hrs by Western blot analysis; assay type: cell-based
[11] = target: Serine/threonine-protein kinase mTOR (Mus musculus) (UniProt Q9JLN9); assay: Inhibition of mTOR signalling in mouse 3T3-L1 cells assessed as upregulation of ATG5 expression level at 0.1 to 10 uM incubated for 24 hrs by Western blot analysis; assay type: cell-based; details: dose 0.1-10 µM
Mus musculus [12] = assay: Anti-obesity activity in high fat diet-induced obese C57BL/6J mouse assessed as decrease in body weight at 40 mg/kg, ip administered every two days for 46 days (Rvb=52.5%); assay type: functional; design: scale not given: the % may be the effect or the level left; details: time 46 day
3T3-L1 [13] = assay: Anti-adipogenic activity against mouse 3T3-L1 cells at lipogenesis stage assessed as decrease in triglyceride level at 1 uM and measured on 3 to 6 days by Oil Red O staining based spectroscopic analysis; assay type: functional, cell-based; details: time 3-6 day
[14] = target: Serine/threonine-protein kinase mTOR (Mus musculus) (UniProt Q9JLN9); assay: Inhibition of mTOR signalling in mouse 3T3-L1 cells assessed as upregulation of ATG3 expression level at 0.1 to 10 uM incubated for 24 hrs by Western blot analysis; assay type: cell-based; details: dose 0.1-10 µM
mTORC1 (Mus musculus) [15] = target: mTORC1 (Mus musculus) (UniProt Q9JLN9); assay: Inhibition of mTORC1 formation in siRNA mediated Raptor knockdown mouse 3T3-L1 cells assessed as decrease in 4E-BP1 expression level at 10 uM incubated for 24 hrs by Western blot analysis; assay type: cell-based
3T3-L1 [16] = assay: Anti-adipogenic activity in SiRNA mediated Raptor knockdown mouse 3T3-L1 cells assessed as PPARgamma expression level at 10 uM by Western blot analysis; assay type: functional, cell-based
3T3-L1 [17] = assay: Anti-adipogenic activity against mouse 3T3-L1 cells assessed as decrease in triglyceride level by Oil Red O staining based spectroscopic analysis; assay type: functional, cell-based
3T3-L1 [18] = assay: Anti-adipogenic activity against mouse 3T3-L1 cells at terminal differentiation stage assessed as decrease in triglyceride level at 1 uM and measured on 6 to 9 days by Oil Red O staining based spectroscopic analysis; assay type: functional, cell-based; details: time 6-9 day
Mus musculus [19] = assay: Anti-obesity activity in high fat diet-induced obese C57BL/6J mouse assessed as decrease in size of adipocytes in epididymis white adipose tissue at 40 mg/kg, ip administered every two days for 46 days by H and E staining based microscopy; assay type: functional, organism-based; details: time 46.0 day
3T3-L1 [20] = assay: Anti-adipogenic activity against mouse 3T3-L1 cells assessed as downregulation of FAS protein expression level at 0.1 to 1 uM incubated for 6 days by Western blot analysis; assay type: functional, cell-based; details: dose 0.1-1 µM, time 6.0 day
Mus musculus [21] = assay: Anti-obesity activity in high fat diet-induced obese C57BL/6J mouse model assessed as reduction in plasma AST level at 40 mg/kg, ip administered every two days for 46 days; assay type: functional, organism-based; details: time 46.0 day
[22] = Selectivity index, ratio of IC50 for cytotoxicity against mouse 3T3-L1 cells to EC50 for anti-adipogenic activity against mouse 3T3-L1 cells; assay type: cell-based; details: read-out: Ratio IC50/EC50
[23] = target: Serine/threonine-protein kinase mTOR (Mus musculus) (UniProt Q9JLN9); assay: Inhibition of mTOR signalling in mouse 3T3-L1 cells assessed as downregulation of S6K1 phosphorylation at 0.1 to 10 uM incubated for 24 hrs by Western blot analysis; assay type: cell-based; details: dose 0.1-10 µM
mTORC1 (Mus musculus) [24] = target: mTORC1 (Mus musculus) (UniProt Q9JLN9); assay: Inhibition of mTORC1 formation in mouse 3T3-L1 cells assessed as decrease in Raptor/mLST8 interaction at 10 uM incubated for 24 hrs by reciprocal co-immunoprecipitation assay; assay type: cell-based
Mus musculus [25] = assay: Anti-obesity activity in high fat diet-induced obese C57BL/6J mouse model assessed as reduction in hepatic triglyceride level at 40 mg/kg, ip administered every two days for 46 days; assay type: functional, organism-based; details: time 46.0 day
mTORC1 (Mus musculus) [26] = target: mTORC1 (Mus musculus) (UniProt Q9JLN9); assay: Inhibition of mTORC1 formation in mouse 3T3-L1 cells assessed as decrease in phosphorylated-S6K1 expression level at 10 uM incubated for 24 hrs by Western blot analysis; assay type: cell-based
mTORC1 (Mus musculus) [27] = target: mTORC1 (Mus musculus) (UniProt Q9JLN9); assay: Inhibition of mTORC1 formation in mouse 3T3-L1 cells assessed as mTOR expression level at 10 uM incubated for 24 hrs by reciprocal co-immunoprecipitation assay; assay type: cell-based
mTORC1 (Mus musculus) [28] = target: mTORC1 (Mus musculus) (UniProt Q9JLN9); assay: Inhibition of mTORC1 formation in mouse 3T3-L1 cells assessed as decrease in Raptor/mTOR interaction at 10 uM incubated for 24 hrs by reciprocal co-immunoprecipitation assay; assay type: cell-based
3T3-L1 [29] = assay: Anti-adipogenic activity against mouse 3T3-L1 cells assessed as downregulation of C/EBPbeta mRNA expression level at 0.1 to 1 uM incubated for 24 hrs by RT-qPCR analysis; assay type: functional, cell-based; details: dose 0.1-1 µM
Mus musculus [30] = assay: Anti-obesity activity in high fat diet-induced obese C57BL/6J mouse assessed as reduction in visceral fat content by measuring perirenal white adipose tissue weight at 40 mg/kg, ip administered every two days for 46 days; assay type: functional, organism-based; details: time 46.0 day
Mus musculus [31] = assay: In vivo inhibition of mTOR signalling in high fat diet-induced obese C57BL/6J mouse model assessed as decrease in mTOR phosphorylation at S2481 in liver at 40 mg/kg, ip administered every two days for 46 days by Western blot analysis; assay type: functional, organism-based; details: time 46.0 day
3T3-L1 [32] = assay: Anti-adipogenic activity against mouse 3T3-L1 cells assessed as downregulation of C/EBPalpha protein expression level at 0.1 to 1 uM incubated for 24 hrs by Western blot analysis; assay type: functional, cell-based; details: dose 0.1-1 µM
Mus musculus [33] = assay: Anti-obesity activity in high fat diet-induced obese C57BL/6J mouse model assessed as increase in COX4 expression level in liver at 40 mg/kg, ip administered every two days for 46 days by immunohistochemical analysis; assay type: functional, organism-based; details: time 46.0 day

- inhibition (mTORC1 (Mus musculus) [3]): Active
- inhibition [8]: Active
- inhibition (mTORC1 (Mus musculus) [10]): Active
- inhibition [11]: Active
- inhibition [14]: Active
- inhibition (mTORC1 (Mus musculus) [15]): Active
- inhibition [23]: Active
- inhibition (mTORC1 (Mus musculus) [24]): inactive
- inhibition (mTORC1 (Mus musculus) [26]): Active
- inhibition (mTORC1 (Mus musculus) [27]): Active
- inhibition (mTORC1 (Mus musculus) [28]): inactive
Compound: C=C(C)[C@@]12OC3(c4ccccc4)O[C@@H]1[C@@H]1[C@H](O)[C@](Cl)(COC(=O)c4ccccc4)[C@@H](O)[C@]4(O)C(=O)C(C)=C[C@H]4[C@@]1(O3)[C@H](C)[C@H]2OC(C)=O
- Activity (3T3-L1 [1]): Active
- Activity (3T3-L1 [2]): Active
- Activity (Mus musculus [4]): Active
- Activity (Mus musculus [5]): Active
- Activity (Mus musculus [6]): Active
- Activity (3T3-L1 [7]): Active
- Activity (Mus musculus [9]): Active
- Activity (Mus musculus [12]): 26.8%
- Activity (3T3-L1 [13]): inactive
- Activity (3T3-L1 [16]): Active
- EC50 (3T3-L1 [17]): 97 nM
- Activity (3T3-L1 [18]): Active
- Activity (Mus musculus [19]): Active
- Activity (3T3-L1 [20]): Active
- Activity (Mus musculus [21]): Active
- selectivity ratio [22]: > 1030
- Activity (Mus musculus [25]): Active
- Activity (3T3-L1 [29]): Active
- Activity (Mus musculus [30]): Active
- inhibition (Mus musculus [31]): Active
- Activity (3T3-L1 [32]): Active
- Activity (Mus musculus [33]): Active
